Experimental data taken from US20250027072A1, “METHODS AND CO[…] TO ENGINEERED CANNABINOID RECEPTORS” (priority 2021, published 2025).
Several values for one entry are separate records, joined by “and”; a condition that tells them apart may be missing. Identical values can stand only once. Entries after “also recorded” stand apart in the source; their conditions may differ. Like-named read-outs stand apart in the source and are kept apart here.

Key:
Format in all cases: cell-based
[1] = target: T1, human Cannabinoid Receptor 1 (CB1R) (Homo sapiens, UniProt P21554); conditions: for Normalized Activity at 1 μM, CB1R: PINACA compounds; for Normalized Activity at 1 μm, CB1R: 5-fluoro PB-22 isomers; for maximal signaling in CB1R dose response: dose-response curves; for EC50 / EC50 at CB1R, synthetic cannabinoid dose response: syn-prepro-Δ89-CB1R, wild type ergosterol strain; for EC50: read-out: EC50 at CB1R, synthetic cannabinoid dose response; for signaling at CB1R in terpene screen: terpenes at 100 μM, normalized to 100 μM ACEA; for relative fluorescence of the ACEA positive control at CB1R: compounds at 10 nM, 100 μM ACEA control
T1 construct: syn-prepro (synthetic yeast pre-pro secretion leader) (N); expressed in transfected cells; host or cells: Saccharomyces cerevisiae BY4741-derived strain (ste2, sst2, far1 knocked out); Gpa1-Gαi3 chimera

[2] = target: human cannabinoid receptor type II (CB2R) (Homo sapiens, UniProt P34972); assay: cell-based; parameters: Normalized Activity at 1 μM, CB2R; other: PINACA compounds, 1 μM; Normalized Activity at 1 μm, CB2R; other: 5-fluoro PB-22 isomers, 1 μm; other: MFα-CB2R, ST03 sterol strain, pH 5.8; activity against CB2R; other: at 10 nM, dose response; preference at CB2R of ADB-BINACA over AB-PINACA; signaling at CB2R in synthetic cannabinoid screen; fused on or other part: yeast mating factor alpha (MFα) pre-pro leader fused at the N-terminus as a trafficking signal; conditions: for Normalized Activity at 1 μM, CB2R: PINACA compounds; for Normalized Activity at 1 μm, CB2R: 5-fluoro PB-22 isomers; for EC50: MFα-CB2R, ST03 sterol strain, pH 5.8; for signaling at CB2R in synthetic cannabinoid screen: compounds at 1 μM
Sequence of human cannabinoid receptor type II (CB2R) (Homo sapiens, UniProt P34972) (P34972 whole entry, the tested form may be a part): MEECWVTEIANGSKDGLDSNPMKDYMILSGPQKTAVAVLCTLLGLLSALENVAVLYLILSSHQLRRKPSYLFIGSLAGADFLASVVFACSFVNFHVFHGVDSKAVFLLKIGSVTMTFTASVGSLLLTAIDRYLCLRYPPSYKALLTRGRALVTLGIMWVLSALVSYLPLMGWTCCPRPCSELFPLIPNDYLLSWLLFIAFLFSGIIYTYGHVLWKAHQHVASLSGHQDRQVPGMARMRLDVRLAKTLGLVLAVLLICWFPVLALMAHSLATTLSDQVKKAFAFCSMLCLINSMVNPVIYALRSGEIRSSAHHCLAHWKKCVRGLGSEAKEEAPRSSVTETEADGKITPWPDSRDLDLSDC
Method: (§1) To efficiently transduce signals from the human machinery to the yeast pathway, the yeast 5 C-terminal residues of the G-alpha gene GPA1 were replaced with the sequence of the Gαi3 human G-alpha variant as previously described (Brown et al. 2000). ZsGreen1 was used to report on the activity of the pathway, integrating it into the genome in place of the pheromone-inducible Fig1 gene (FIG. 14A).
(§2) Yeast colonies were picked and grown overnight to saturation in pH 5.8 SD-His media in a 2.2 mL deep well plate (Axygen) grown in a plate-shaking incubator (30° C., 1000 rpm, 3 mm orbital). In the morning cultures were diluted 1:10 or 1:25 in SD-His media buffered to pH 7.1 with 100 mM MOPSO (unless otherwise specified). Ligands were added to the culture and incubated with shaking for 8 hours. Cells were then washed three times with ice-cold Tris buffer (pH 7) and diluted 1:20 for cytometry. All cytometry was performed on a Sony SA3800 spectral analyzer. Each sample was tested for 10,000 events, and read at a rate of 1,000 events per second. All assays as reported here were filtered only for singlet populations.

[3] = tested on: human cannabinoid receptor type II (CB2R); assay: cell-based; conditions: for receptor bias CB2R versus CB1R: dual biosensor screen at 1 μM
Method: as §1, §2

[4] = tested on: human Cannabinoid Receptor 1 (CB1R)
[5] = read-out: EC50 at CB2R, dose response

## CCCC(F)Cn1nc(C(=O)NC(C(N)=O)C(C)C)c2ccccc21 (stereo not shown)
[1]
  Normalized Activity at 1 μM, CB1R: 0.632
[2]
  Normalized Activity at 1 μM, CB2R: 0.340

## CCCCCn1nc(C(=O)NC(C)(C(N)=O)C(C)C)c2ccccc21 (stereo not shown)
[1]
  Normalized Activity at 1 μM, CB1R: 0.810
[2]
  Normalized Activity at 1 μM, CB2R: 0.303

## CCC(F)CCn1nc(C(=O)NC(C(N)=O)C(C)C)c2ccccc21 (stereo not shown)
[1]
  Normalized Activity at 1 μM, CB1R: 0.700
[2]
  Normalized Activity at 1 μM, CB2R: 0.310

## CCCCCn1nc(C(=O)N[C@@H](CCCC)C(N)=O)c2ccccc21
[1]
  Normalized Activity at 1 μM, CB1R: 0.735
[2]
  Normalized Activity at 1 μM, CB2R: 0.460

## CC(C)(C)C(NC(=O)c1cn(Cc2ccccc2)c2ccccc12)C(N)=O (stereo not shown)
[1]
  Normalized Activity at 1 μM, CB1R: 0.842
[2]
  Normalized Activity at 1 μM, CB2R: 0.255

## O=C(Oc1cnc2ccccc2c1)c1cn(CCCCCF)c2ccccc12
[1]
  Normalized Activity at 1 μm, CB1R: 0.530

## O=C(Oc1ccc2ccncc2c1)c1cn(CCCCCF)c2ccccc12
[2]
  Normalized Activity at 1 μm, CB2R: 0.339

## O=C(Oc1cncc2ccccc12)c1cn(CCCCCF)c2ccccc12
[1]
  Normalized Activity at 1 μm, CB1R: 0.570

## O=C(Oc1ccc2cccnc2c1)c1cn(CCCCCF)c2ccccc12
[1]
  Normalized Activity at 1 μm, CB1R: 0.550

## O=C(Oc1cccc2ccncc12)c1cn(CCCCCF)c2ccccc12
[2]
  Normalized Activity at 1 μm, CB2R: 0.771

## CCCC(F)Cn1nc(C(=O)Oc2cccc3cccnc23)c2ccccc21 (stereo not shown)
[1]
  Normalized Activity at 1 μm, CB1R: 0.531
[2]
  Normalized Activity at 1 μm, CB2R: 0.582

## O=C(Oc1ccc2cnccc2c1)c1cn(CCCCCF)c2ccccc12
[2]
  Normalized Activity at 1 μm, CB2R: 0.331

## O=C(Oc1ccc2ncccc2c1)c1cn(CCCCCF)c2ccccc12
[1]
  Normalized Activity at 1 μm, CB1R: 0.500
[2]
  Normalized Activity at 1 μm, CB2R: 0.141

## CCCCCn1nc(C(=O)N[C@H](C(N)=O)[C@@H](C)CC)c2ccccc21 (single isomer, unassigned)
[1]
  Normalized Activity at 1 μM, CB1R: 0.753
[2]
  Normalized Activity at 1 μM, CB2R: 0.568

## CCC(F)CCn1cc(C(=O)C2C(C)(C)C2(C)C)c2ccccc21 (single isomer, unassigned) [XLR11 N-(3-fluoropentyl) isomer]
[3]
  receptor bias CB2R versus CB1R: CB2R-biased

## CCCC(NC(=O)c1nn(Cc2ccc(F)cc2)c2ccccc12)C(N)=O (single isomer, unassigned; isomer 1) [AB-FUBINACA isomer 1]
[1]; compounds at 1 μM
  signaling at CB1R in synthetic cannabinoid screen relative to 100 μM ACEA positive control: greatest activity of all the isomers
[1]
  maximal signaling in CB1R dose response: high maximal signaling
  EC50: 0.01 nM

## CC(C)(C)C(NC(=O)c1c2ccccc2nn1CCCCCF)C(N)=O (single isomer, unassigned; isomer 2) [5-fluoro ADB-PINACA isomer 2]
[1]
  EC50 at CB1R, synthetic cannabinoid dose response: low nanomolar range
  EC50: 2.25 nM

## CCC(C)(NC(=O)c1nn(Cc2ccc(F)cc2)c2ccccc12)C(N)=O (single isomer, unassigned; isomer 2) [AB-FUBINACA isomer 2]
[1]
  maximal signaling in CB1R dose response: lower response
  EC50: 0.23 nM

## CCC(C(N)=O)N(C)C(=O)c1nn(Cc2ccc(F)cc2)c2ccccc12 (single isomer, unassigned; isomer 5) [AB-FUBINACA isomer 5]
[1]; compounds at 1 μM
  signaling at CB1R in synthetic cannabinoid screen relative to 100 μM ACEA positive control: least GPCR activation
[1]
  maximal signaling in CB1R dose response: lower response
  EC50: 15.9 nM

## O=C(Oc1ccnc2ccccc12)c1cn(CCCCCF)c2ccccc12 [5-fluoro PB-22 4-hydroxyquinoline isomer]
[4]
  factor by which CB1 is favored over CB2: ~3

## O=C(Oc1cccc2cnccc12)c1cn(CCCCCF)c2ccccc12 [5-fluoro PB-22 5-hydroxyisoquinoline isomer]
[2]; [5]
  EC50: 216 nM
[3]; normalized activity at 1 μM, Table 3
  fold by which CB2 is favored over CB1: roughly 2 fold

## CC(C)=CCCC(C)CCO (stereo not drawn) [(+)-β-Citronellol]
[1]
  signaling at CB1R in terpene screen: activate CB1R

## CC1(C)C(C(=O)c2cn(CCN3CCOCC3)c3ccccc23)C1(C)C [A-796260]
[2]
  signaling at CB2R in synthetic cannabinoid screen: among the top CB2R targets

## CC1(C)C(C(=O)c2cn(CC3CCOCC3)c3ccccc23)C1(C)C [A-834735]
[2]; [5]
  EC50: 7.42 nM
[3]
  receptor bias CB2R versus CB1R: CB2R-biased

## COCCn1c(C)c(C)s/c1=N\C(=O)C1C(C)(C)C1(C)C [A-836339, 2,2,3,3-Tetramethyl-cyclopropanecarboxylic Acid [3-(2-Methoxy-ethyl)-4,5-dimethyl-3H-thiazol-(2Z)-ylidene]-amide]
[2]; [5]
  EC50: 16.3 nM

## CC(C)[C@H](NC(=O)c1cn(Cc2ccccc2)c2ccccc12)C(N)=O [AB-BICA]
[1]; compounds at 1 μM
  signaling at CB1R in synthetic cannabinoid screen relative to 100 μM ACEA positive control: CB1R agonists
[2]
  signaling at CB2R in synthetic cannabinoid screen: poor CB2R signalers

## CC(C)[C@H](NC(=O)c1cn(CC2CCCCC2)c2ccccc12)C(N)=O [AB-CHMICA]
[1]; compounds at 1 μM
  signaling at CB1R in synthetic cannabinoid screen relative to 100 μM ACEA positive control: CB1R agonists
[2]
  signaling at CB2R in synthetic cannabinoid screen: poor CB2R signalers

## CC(C)[C@H](NC(=O)c1nn(Cc2ccc(F)cc2)c2ccccc12)C(N)=O [AB-FUBINACA]
[1]
  relative fluorescence of the ACEA positive control at CB1R: strong signaling
  maximal signaling in CB1R dose response: high maximal signaling
  EC50: 0.66 nM
[1]; compounds at 1 μM
  signaling at CB1R in synthetic cannabinoid screen relative to 100 μM ACEA positive control: maximal fluorescence

## CCCCC/C=C\C/C=C\C/C=C\C/C=C\CCCC(=O)NCCCl [ACEA]
[4]
  drop in sensitivity of Δ89 constructs compared to full-length counterparts: 3.6-3.8 fold and 3.8 fold
[1]
  EC50, dose response with CB1R: low μM range

## CCCCCn1nc(C(=O)NC(C(N)=O)C(C)(C)C)c2ccccc21 (stereo not shown) [ADB-PINACA]
[1]
  relative fluorescence of the ACEA positive control at CB1R: strong signaling
  EC50 at CB1R, synthetic cannabinoid dose response: low nanomolar range
  EC50: 0.09 nM
[1]; compounds at 1 μM
  signaling at CB1R in synthetic cannabinoid screen relative to 100 μM ACEA positive control: maximal fluorescence
[2]
  signaling at CB2R in synthetic cannabinoid screen: high activity

## CN1CCCCC1Cn1cc(C(=O)c2cc([N+](=O)[O-])ccc2I)c2ccccc21 (stereo not shown) [AM-1241]
[1]
  signaling at CB1R in synthetic cannabinoid screen relative to 100 μM ACEA positive control: at most approximately half the relative fluorescence of the ACEA positive control

## CCN(CC)CCN1C(=O)CN=C(c2ccccc2F)c2cc(Cl)ccc21 [Flurazepam]
[1]; compounds at 1 μM
  signaling at CB1R in synthetic cannabinoid screen relative to 100 μM ACEA positive control: did not show strong signal; also recorded: does not strongly activate the CB1R

## CCCCCCC(C)(C)c1cc(O)c2c(c1)OC(C)(C)[C@H]1CC=C(CO)C[C@H]21 [HU-211]
[1]
  signaling at CB1R in synthetic cannabinoid screen relative to 100 μM ACEA positive control: at most approximately half the relative fluorescence of the ACEA positive control

## CCCCCn1c(O)c(N=NC(=O)c2ccccc2)c2ccc(OC)cc21 [MDA 77]
[1]; compounds at 1 μM
  signaling at CB1R in synthetic cannabinoid screen relative to 100 μM ACEA positive control: at most approximately half the relative fluorescence of the ACEA positive control

## CCCCCn1cc(-c2nc(CN(CC)CC)cs2)c2ccccc21 [PTI-1]
[1]; compounds at 1 μM
  signaling at CB1R in synthetic cannabinoid screen relative to 100 μM ACEA positive control: CB1R agonists
[2]
  signaling at CB2R in synthetic cannabinoid screen: poor CB2R signalers

## CC(C)c1c(O)ccc2c1CC[C@H]1C(C)(C)CCC[C@]21C [Totarol]
[2]; EC50 at CB2R, dose response
  EC50: 485 nM
[2]; at 10 nM, dose response
  activity against CB2R: active

## Cc1c(C(=O)c2ccccc2)c(N)c(-c2ccccc2)n1Cc1ccc(Cl)cc1 [URB447]
[1]; compounds at 1 μM
  signaling at CB1R in synthetic cannabinoid screen relative to 100 μM ACEA positive control: at most approximately half the relative fluorescence of the ACEA positive control

## COc1ccc(C(=O)c2c(C)n(CCN3CCOCC3)c3cc(Br)ccc23)cc1 [WIN54,461]
[1]; compounds at 1 μM
  signaling at CB1R in synthetic cannabinoid screen relative to 100 μM ACEA positive control: at most approximately half the relative fluorescence of the ACEA positive control

## CCCCCn1nc(C(=O)N[C@H](C(N)=O)C(C)C)c2ccccc21 [drawing 1]
[1]
  Normalized Activity at 1 μM, CB1R: 0.550

## CCCCCn1nc(C(=O)NC(C(N)=O)C(C)(C)C)c2ccccc21 (stereo not shown) [drawing 2]
[1]
  Normalized Activity at 1 μM, CB1R: 0.590
[2]
  Normalized Activity at 1 μM, CB2R: 0.700

## O=C(Oc1ccnc2ccccc12)c1cn(CCCCCF)c2ccccc12 [drawing 16]
[1]
  Normalized Activity at 1 μm, CB1R: 0.829
[2]
  Normalized Activity at 1 μm, CB2R: 0.247

## C=C1CCC[C@]2(C)CC[C@@H](C(C)(C)O)C[C@@H]12 [β-Eudesmol]
[1]; 10 μM, dose response
  signaling at CB1R at lower concentration: showed signaling
[1]
  signaling at CB1R in terpene screen: activate CB1R
